What was measured:
Test in all cases: relative viability (nuclei count vs DMSO), 5 days (fraction); higher = more cells survive
Bleomycin + Palbociclib = compound: CC1=C(N=C(N=C1N)[C@H](CC(=O)N)NC[C@@H](C(=O)N)N)C(=O)N[C@@H]([C@H](C2=CN=CN2)OC3C(C(C(C(O3)CO)O)O)OC4C(C(C(C(O4)CO)O)OC(=O)N)O)C(=O)N[C@H](C)[C@H]([C@H](C)C(=O)N[C@@H]([C@@H](C)O)C(=O)NCCC5=NC(=CS5)C6=NC(=CS6)C(=O)NCCC[S+](C)C)O [Bleomycin] + CC(=O)c1c(C)c2cnc(Nc3ccc(N4CCNCC4)cn3)nc2n(C2CCCC2)c1=O [Palbociclib] (partner 0.5 µM); details: main component drawn
Procedure, shortened: (§1)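 Relative viability divides the nuclei count in treated wells by that in vehicle wells. Lung cancer cell lines were seeded in 1536-well plates, dosed by pin tool the next day, and fixed and stained after 5 days in one step with final 0.05% Triton X-100, 1% formaldehyde and 1 ug/ml Hoechst. Dosing was a single drug or a fixed anchor-drug dose plus five library-drug doses (not always all listed) in √10 steps, and values are medians of duplicate plates imaged at 4×.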

Bleomycin + Crizotinib = compound: CC1=C(N=C(N=C1N)[C@H](CC(=O)N)NC[C@@H](C(=O)N)N)C(=O)N[C@@H]([C@H](C2=CN=CN2)OC3C(C(C(C(O3)CO)O)O)OC4C(C(C(C(O4)CO)O)OC(=O)N)O)C(=O)N[C@H](C)[C@H]([C@H](C)C(=O)N[C@@H]([C@@H](C)O)C(=O)NCCC5=NC(=CS5)C6=NC(=CS6)C(=O)NCCC[S+](C)C)O [Bleomycin] + C[C@@H](Oc1cc(-c2cnn(C3CCNCC3)c2)cnc1N)c1c(Cl)ccc(F)c1Cl [Crizotinib] (partner 1 µM); details: main component drawn
Procedure, shortened: as §1

Etoposide + Bortezomib = compound: COc1cc([C@@H]2c3cc4c(cc3[C@@H](O[C@@H]3O[C@@H]5CO[C@@H](C)O[C@H]5[C@H](O)[C@H]3O)[C@H]3COC(=O)[C@H]23)OCO4)cc(OC)c1O [Etoposide] + CC(C)C[C@H](NC(=O)[C@H](Cc1ccccc1)NC(=O)c1cnccn1)B(O)O [Bortezomib] (partner 0.002 µM)
Procedure, shortened: as §1

Etoposide + Vorinostat = compound: COc1cc([C@@H]2c3cc4c(cc3[C@@H](O[C@@H]3O[C@@H]5CO[C@@H](C)O[C@H]5[C@H](O)[C@H]3O)[C@H]3COC(=O)[C@H]23)OCO4)cc(OC)c1O [Etoposide] + O=C(CCCCCCC(=O)Nc1ccccc1)NO [Vorinostat] (partner 1 µM)
Procedure, shortened: as §1

| Cell Line | relative viability (Bleomycin + Palbociclib; first compound 0.01 µM) | relative viability (Bleomycin + Palbociclib; first compound 0.03162 µM) | relative viability (Bleomycin + Palbociclib; first compound 0.1 µM) | relative viability (Bleomycin + Palbociclib; first compound 0.3162 µM) | relative viability (Bleomycin + Palbociclib; first compound 1 µM) | relative viability (Bleomycin + Crizotinib; first compound 0.01 µM) | relative viability (Bleomycin + Crizotinib; first compound 0.03162 µM) | relative viability (Bleomycin + Crizotinib; first compound 0.1 µM) | relative viability (Bleomycin + Crizotinib; first compound 0.3162 µM) | relative viability (Bleomycin + Crizotinib; first compound 1 µM) | relative viability (Etoposide + Bortezomib; first compound 0.01 µM) | relative viability (Etoposide + Bortezomib; first compound 0.03162 µM) | relative viability (Etoposide + Bortezomib; first compound 0.1 µM) | relative viability (Etoposide + Bortezomib; first compound 0.3162 µM) | relative viability (Etoposide + Bortezomib; first compound 1 µM) | relative viability (Etoposide + Vorinostat; first compound 0.01 µM) | relative viability (Etoposide + Vorinostat; first compound 0.03162 µM) | relative viability (Etoposide + Vorinostat; first compound 0.1 µM) | relative viability (Etoposide + Vorinostat; first compound 0.3162 µM) | relative viability (Etoposide + Vorinostat; first compound 1 µM) |
| --- | --- | --- | --- | --- | --- | --- | --- | --- | --- | --- | --- | --- | --- | --- | --- | --- | --- | --- | --- | --- |
| NCI-H647 | 0.189 | 0.207 | 0.138 | 0.119 | 0.0651 | 0.313 | 0.326 | 0.213 | 0.135 | 0.109 | 0.807 | 1.4 | 0.72 | 0.298 | 0.147 | 0.467 | 0.631 | 0.657 | 0.181 | 0.103 |
| NCI-H650 | 0.282 | 0.34 | 0.307 | 0.255 | 0.2 | 0.502 | 0.718 | 0.629 | 0.237 | 0.303 | 0.683 | 0.836 | 0.63 | 0.417 | 0.222 | 0.438 | 0.454 | 0.241 | 0.266 | 0.181 |
| NCI-H661 | 0.39 | 0.398 | 0.354 | 0.335 | 0.312 | 0.82 | 0.943 | 0.745 | 0.508 | 0.425 | 0.735 | 0.828 | 0.531 | 0.543 | 0.276 | 0.759 | 0.841 | 0.706 | 0.476 | 0.382 |
| NCI-H727 | 0.346 | 0.721 | 0.654 | 0.526 | 0.636 | 0.763 | 0.731 | 0.634 | 0.411 | 0.489 | 0.764 | 1.07 | 0.536 | 0.857 | 0.659 | 1.16 | 1.47 | 0.873 | 1.12 | 0.96 |
| NCI-H838 | 0.22 | 0.173 | 0.169 | 0.153 | 0.129 | 0.437 | 0.32 | 0.184 | 0.176 | 0.172 | 0.641 | 0.978 | 0.659 | 0.624 | 0.333 | 0.74 | 0.67 | 0.69 | 0.538 | 0.267 |
| NCI-H1355 | 0.402 | 0.382 | 0.396 | 0.253 | 0.221 | 0.948 | 1.03 | 0.926 | 0.538 | 0.298 | 1.15 | 1.35 | 0.671 | 1.13 | 0.412 | 0.635 | 0.687 | 0.392 | 0.461 | 0.272 |
| NCI-H1437 | 0.306 | 0.224 | 0.293 | 0.256 | 0.221 | 0.803 | 0.811 | 0.736 | 0.476 | 0.382 | 0.378 | 0.547 | 0.492 | 0.243 | 0.273 | 0.871 | 0.877 | 0.804 | 0.435 | 0.396 |
| NCI-H1650 | 0.215 | 0.222 | 0.153 | 0.176 | 0.191 | 0.397 | 0.311 | 0.258 | 0.16 | 0.172 | 0.201 | 0.204 | 0.208 | 0.181 | 0.185 | 0.428 | 0.518 | 0.518 | 0.229 | 0.219 |
| NCI-H1651 | 0.488 | 0.454 | 0.464 | 0.288 | 0.252 | 0.787 | 0.772 | 0.754 | 0.448 | 0.358 | 0.914 | 0.979 | 0.875 | 0.532 | 0.181 | 0.602 | 0.65 | 0.399 | 0.387 | 0.189 |
| NCI-H1666 | 0.599 | 0.655 | 0.594 | 0.578 | 0.572 | 0.717 | 0.57 | 0.469 | 0.339 | 0.325 | 0.949 | 0.71 | 0.528 | 0.294 | 0.242 | 0.94 | 0.933 | 0.918 | 0.632 | 0.549 |
| NCI-H1734 | 0.29 | 0.245 | 0.27 | 0.207 | 0.172 | 0.581 | 0.545 | 0.554 | 0.219 | 0.198 | 0.894 | 0.878 | 0.572 | 0.624 | 0.308 | 0.701 | 0.929 | 0.514 | 0.458 | 0.219 |
| NCI-H1755 | 0.433 | 0.435 | 0.457 | 0.408 | 0.428 | 0.771 | 0.841 | 0.827 | 0.593 | 0.567 | 0.995 | 1.02 | 0.887 | 0.9 | 0.969 | 0.748 | 0.896 | 0.694 | 0.743 | 0.474 |
| NCI-H1915 | 0.419 | 0.389 | 0.332 | 0.173 | 0.131 | 0.661 | 0.665 | 0.45 | 0.337 | 0.183 | 0.963 | 0.969 | 0.992 | 0.906 | 0.516 | 0.511 | 0.616 | 0.426 | 0.477 | 0.418 |
| NCI-H1975 | 0.377 | 0.398 | 0.397 | 0.226 | 0.178 | 0.774 | 0.693 | 0.662 | 0.319 | 0.241 | 0.402 | 0.386 | 0.411 | 0.322 | 0.177 | 0.726 | 0.728 | 0.739 | 0.476 | 0.328 |

Reference: the supplement of paper PMC10307832
